Data taken from patent US20220162561A1, “COMPOSITION FOR PROMOTING SECRETION OF EXTRACELLULAR VESICLES” (priority 2019, published 2022).

Key:
Type in all cases: cell-based
[1] = tested on: mesenchymal stem cells derived from human adipose tissue; experiment: Test Example 4: cytotoxicity, LDH activity in culture solution
Experimental: Mesenchymal stem cells derived from the human adipose tissue (#C-12977 manufactured by Takara Bio Inc.) were suspended in mesenchymal stem cell growth medium 2 (C-28009 manufactured by Takara Bio Inc.) so as to be 8×10^4 cells/1.8 mL, and seeded on a 6-well cell culture treatment plate (3516 manufactured by Corning Inc.). To the seeded mesenchymal stem cells derived from human adipose tissue was added 200 μL of the compound solution of each of Examples 1 to 8 diluted to 10-fold concentration with the mesenchymal stem cell growth medium 2, or mesenchymal stem cell growth medium alone (control), and after culturing for 24 hours, the culture solution was recovered. The activity of lactate dehydrogenase (LDH) contained in the recovered culture solution was measured by using LDH Cytotoxicity Detection Kit (MK401 manufactured by Takara Bio Inc.) as follows. To a freeze-dried product of Solution A was added 1 mL of purified water to completely dissolve therein, then, 250 μL of Solution A and 11.25 mL of Solution B were mixed to prepare Solution C. To 100 μL of the recovered culture solution was added 100 μL of Solution C, and the mixture was reacted at room temperature for 30 minutes. Absorbance at 490 nm was measured using Enspire (manufactured by PerkinElmer).

[2] = tested on: mesenchymal stem cells derived from human adipose tissue; experiment: Test Example 5: cell proliferation activity (cell viability), CellTiter-Glo; design: scale not given here
Experimental: Mesenchymal stem cells derived from the human adipose tissue (#C-12977 manufactured by Takara Bio Inc.) were suspended in mesenchymal stem cell growth medium 2 (C-28009 manufactured by Takara Bio Inc.) so as to be 2×10^3 cells/90 μL, and seeded on a 96-well cell culture treatment plate (3585 manufactured by Corning Inc.). To the seeded mesenchymal stem cells derived from human adipose tissue was added 10 μL of the compound solution of each of Examples 1 to 8 diluted to 10-fold concentration with the mesenchymal stem cell growth medium 2, or mesenchymal stem cell growth medium alone (control), and the cells were cultured for 24 hours. Subsequently, the number of living cells was measured as follows using CellTiter-Glo (Registered Trademark) Luminescent Cell Viability Assay (G7570 manufactured by Promega). 100 μL well of a solution in which CellTiter-Glo (trademark) Substrate was dissolved in CellTiter-Glo (trademark) Buffer was added to each well of the above-mentioned 96-well cell culture treatment plate, and then, 100 μL thereof was transferred to 96-well cell culture treatment white plate (356701 manufactured by Corning Inc.), and the luminescence was measured with Enspire (manufactured by PerkinElmer).

[3] = tested on: mesenchymal stem cells derived from human bone marrow; experiment: Test Example 8: cytotoxicity, LDH activity in culture solution
Experimental: (§1) Mesenchymal stem cells derived from human bone marrow or mesenchymal stem cells derived from human umbilical cord matrix (#C-12974, #C-12971 manufactured by Takara Bio Inc.) were suspended in mesenchymal stem cell growth medium 2 (C-28009 manufactured by Takara Bio Inc.) so as to be 8×10^4 cells/1.8 mL, and seeded on a 6-well cell culture treatment plate (3516 manufactured by Corning Inc.). To the seeded mesenchymal stem cells was added each 200 μL of the compounds of Examples 1 to 8 diluted to 10-fold concentration with the mesenchymal stem cell growth medium 2, and after culturing for 24 hours, the culture solution was recovered. The activity of lactate dehydrogenase (LDH) contained in the recovered culture solution was measured by using LDH Cytotoxicity Detection Kit (MK401 manufactured by Takara Bio Inc.). To a freeze-dried product of Solution A was added 1 mL of purified water to completely dissolve therein, then, 250 μL of Solution A and 11.25 mL of Solution B were mixed to prepare Solution C. To 100 μL of the recovered culture solution was added 100 μL of Solution C, and the mixture was reacted at room temperature for 30 minutes. Absorbance at 490 nm was measured using Enspire (manufactured by PerkinElmer). Based on the obtained measured values, a relative value when the compound untreated group (control) was set to 1 was calculated.

[4] = tested on: mesenchymal stem cells derived from human umbilical cord matrix; experiment: as above
Experimental: as §1

[5] = Table 4, 2 μM, 24 hours, LDH, absorbance at 490 nm
[6] = 2 μM, 24 hours, LDH, 490 nm, control set to 1
[7] = Table 4, 50 nM, 24 hours, LDH, absorbance at 490 nm
[8] = Table 6, 50 nM, 24 hours, number of living cells, CellTiter-Glo
[9] = 20 nM, 24 hours, LDH, 490 nm, control set to 1
[10] = Table 6, 2 μM, 24 hours, number of living cells, CellTiter-Glo

| SMILES | Absorbance [1, 5] | Relative value of absorbance [3, 6] | Relative value of absorbance [4, 6] | Relative value of absorbance [3, 9] | Relative value of absorbance [4, 9] | Luminescence [2, 10] | other results |
| --- | --- | --- | --- | --- | --- | --- | --- |
| Cc1cc2c(C(C)C)c(O)c(O)c(C=O)c2c(O)c1-c1c(C)cc2c(C(C)C)c(O)c(O)c(C=O)c2c1O [Example 4, (R)-(−)-Gossypol] | 1.20 | 0.97 | 0.88 |  |  |  | Luminescence ([2]; human, 24 h, 2 μM): 0.85 |
| CCCCCCCCCCCc1ccc(/C=C2\N=C(c3ccc[nH]3)C=C2OC)[nH]1.Cl [Example 7, Undecylprodigiosin Hydrochloride] |  |  |  | 0.99 | 1.03 |  | Absorbance [1, 7]: 1.02; Luminescence [2, 8]: 0.74 |
| CC(=O)O.Cc1cc2c(C(C)C)c(O)c(O)c(C=O)c2c(O)c1-c1c(C)cc2c(C(C)C)c(O)c(O)c(C=O)c2c1O [Example 2, (S)-Gossypol Acetate] | 1.02 | 0.99 | 1.04 |  |  | 1.00 |  |
| Cc1cc2c(C(=O)NC[C@H](C)c3ccccc3)c(O)c(O)cc2c(O)c1-c1c(C)cc2c(C(=O)NC[C@H](C)c3ccccc3)c(O)c(O)cc2c1O [Example 8, Sabutoclax] | 1.18 | 1.01 | 1.15 |  |  | 0.95 |  |
| COC1=CC(c2cc3ccccc3[nH]2)=N/C1=C\c1[nH]c(C)cc1C.CS(=O)(=O)O [Example 5, Obatoclax Mesylate] |  |  |  | 0.96 | 0.94 |  | Absorbance ([1]; Table 3, 50 nM, 24 hours, LDH, absorbance at 490 nm): 1.14; Luminescence ([2]; Table 5, 50 nM, 24 hours, number of living cells, CellTiter-Glo): 0.75 |
| Cc1cc2c(C(C)C)c(O)c(O)cc2c(O)c1-c1c(C)cc2c(C(C)C)c(O)c(O)cc2c1O [Example 3, (+)-Apogossypol] |  |  |  |  |  |  | Absorbance ([1]; human, 24 h, 2 μM): 1.02; Luminescence ([2]; human, 24 h, 2 μM): 0.82; Relative value of absorbance ([3]; human, 24 h, 2 μM): 0.99; Relative value of absorbance ([4]; human, 24 h, 2 μM): 1.06 |
| CCCCCC1=C/C(=C\c2[nH]c(-c3ccc[nH]3)cc2OC)N=C1C.Cl [Example 6, Prodigiosin Hydrochloride] |  |  |  | 0.93 | 0.97 |  | Absorbance [1, 7]: 1.02; Luminescence [2, 8]: 0.76 |
| CC(=O)O.Cc1cc2c(C(C)C)c(O)c(O)c(C=O)c2c(O)c1-c1c(C)cc2c(C(C)C)c(O)c(O)c(C=O)c2c1O (racemic) [Example 1, (±)-Gossypol Acetate] | 0.73 | 0.93 | 0.78 |  |  | 0.96 | Absorbance ([1]; Table 3, 2 μM, 24 hours, LDH, absorbance at 490 nm): 1.08; Luminescence ([2]; Table 5, 2 μM, 24 hours, number of living cells, CellTiter-Glo): 0.87 |
